{"source": "patent US6346514B1", "about": "“Pharmaceutical lysine-containing polypeptide compositions and methods of use thereof” (priority 1991, dated 2002)", "key": {"[1]": {"test_system": "lymphoid cells in blood, thymus, lymph nodes, spleen and red bone marrow", "assay": "Effect on immune system of healthy guinea pigs", "type": "in vivo", "description": "Forty male guinea pigs were used in the following test. Most of the animals were treated daily with a single dose (i.m.) of Thr-Ala-Glu-Glu-Lys (SEQ ID NO:34) (HM897) […] for five days. Control animals were treated with single daily doses of 0.5 ml (i.m.) of normal saline.\nTested parameters: clinical blood examination, non-specific resistance by lysosomal cationic test; “active” T-lymphocytes and total T-lymphocytes (E-RFC), B-lymphocytes (EAC-RFC) were measured in blood, thymus, lymph nodes, spleen and red bone marrow. […] Blood lymphocyte functional activity was evaluated by leukocyte migration inhibition (LMI) with ConA. Histological examinations of thymus, spleen, lymph nodes, bone marrow and adrenals were carried out. All of these indicia were measured on 10th and 20th days after onset of the treatment."}, "[2]": {"test_system": "hemolytic anemia induced by phenylhydrazine hydrochloride", "assay": "Erythropoietic effect in hemolytic phenylhydrazine-induced anemia", "type": "in vivo, mice", "details": "3rd day of administration", "description": "This test was designed to study posthemorrhagic anemia (acute blood loss caused by taking blood from retroorbital sinus), and hemolytic anemia induced by phenylhydrazine hydrochloride (120 mg active ingredients/kg 30 Balb/c-mice and 30 CBA-mice). HM897 was injected intraperitoneally in doses of 100 and 150 microg per kg, 3 hours and 1 day after intervention modelling anemia, for 5 days. Tester parameters: RBC, leukocytes, reticulocytes, Hb, Hct"}, "[3]": {"test_system": "guinea-pig myelokaryocytes", "assay": "Colony-forming activity of macrophage precursors", "type": "cell-based", "details": "tested 1.0 to 0.0000001 microg/ml", "description": "This test is designed to study macrophage precursors. Cultured cells used were guinea-pig myelokaryocytes. HM897 was added to cell culture in concentrations 1.0, 0.001, 0.00001 and 0.0000001 microg/ml."}, "[4]": {"test_system": "hemodepression induced by 5-fluorouracil", "assay": "Hemostimulating effect in 5-fluorouracil-induced hemodepression", "type": "in vivo, CBA-mice", "description": "The test was designed to study hemodepression induced by 5-fluorouracil injected i.p. in a dose 175 mg per kg (172 male CBA-mice). Treatment: peptide HM897 was administered i.p. starting from 4th day after 5-FU injection in doses 0.00001, 0.001, 0.01, 1.0 mg/kg for 5 days. Treatment of controls: normal saline i.p. for 5 days. Tested parameters: peripheral blood count and bone marrow differential count."}, "[5]": {"test_system": "methicillin-resistant S. aureus", "assay": "Survival of mice inoculated with 10xLD50 S. aureus, HM897 pretreatment with or without Ampicillin", "type": "in vivo", "description": "As in Example 8, animals were inoculated intraperitoneally with 10×LD50 of a methicillin-resistant S. aureus suspended in brain-heart infusion broth containing 5 percent mucin. Different treatments were administered s.c., i.p., or p.o., one hour later and deaths occurring during the subsequent three days were recorded. If significant prevention of mortality (>50 percent survival) was observed, the minimum effective dose (MED) was determined.\nTwo control experiments were conducted. HM897 was administered as a pretreatment prior to microbial inoculation, and saline was administered i.p. The number of survivors at 72 hours was determined. […] The number of survivors at 72 hours was recorded.\nSurvival statistics were determined over the periods of 12, 24, 36, 48, and 72 hours. […] Survival statistics were determined over periods of 12, […], 36, 48, and 72 hours. The method of conducting the experiment is illustrated in FIG. 5."}, "[6]": {"details": "12 HOURS after inoculation, HM897 10 mcg/kg"}, "[7]": {"details": "12 HOURS after inoculation, HM897 100 mcg/kg"}, "[8]": {"details": "12 HOURS after inoculation, HM897 1000 mcg/kg"}, "[9]": {"details": "24 HOURS after inoculation, HM897 10 mcg/kg"}, "[10]": {"details": "24 HOURS after inoculation, HM897 100 mcg/kg"}, "[11]": {"details": "24 HOURS after inoculation, HM897 1000 mcg/kg"}, "[12]": {"details": "36 HOURS after inoculation, HM897 10 mcg/kg"}, "[13]": {"details": "36 HOURS after inoculation, HM897 100 mcg/kg"}, "[14]": {"details": "36 HOURS after inoculation, HM897 1000 mcg/kg"}, "[15]": {"details": "48 HOURS after inoculation, HM897 10 mcg/kg"}, "[16]": {"details": "48 HOURS after inoculation, HM897 100 mcg/kg"}, "[17]": {"details": "48 HOURS after inoculation, HM897 1000 mcg/kg"}, "[18]": {"details": "72 HOURS after inoculation, HM897 10 mcg/kg"}, "[19]": {"details": "72 HOURS after inoculation, HM897 100 mcg/kg"}, "[20]": {"details": "72 HOURS after inoculation, HM897 1000 mcg/kg"}}}
{"substance": "Thr-Ala-Glu-Glu-Lys (TAEEK) [HM897]", "values": [{"measurement": "lymphocyte stimulation", "setting": "[1]; 10th day", "value": "predominant T-lymphocyte stimulation"}, {"measurement": "mitotic activity in lymph nodes, spleen and bone marrow", "setting": "[1]; 10th day after onset of administration", "value": "increased level of mitotic activity"}, {"measurement": "lymphocyte stimulation", "setting": "[1]; 20th day", "value": "both T- and B-lymphocytes"}, {"measurement": "lymphoid cells proliferation and differentiation in thymus and bone marrow", "setting": "[1]; healthy guinea pigs, i.m. single daily dose for five days", "value": "stimulates lymphoid cells proliferation and differentiation in thymus and bone marrow"}, {"measurement": "erythrocytes", "setting": "[2]", "value": 7.2, "unit": "mln/ml"}, {"measurement": "concentration from which macrophage precursors colony-forming activity is stimulated", "setting": "[3]", "value": "≥ 0.0000001", "unit": "µg/mL"}, {"measurement": "restoration of hemopoiesis", "setting": "[4]; 5-FU hemodepression, CBA-mice", "value": "promotes active restoration of hemopoiesis"}, {"measurement": "dose from which the peptide was active", "setting": "[4]; i.p. for 5 days from 4th day after 5-FU 175 mg per kg", "value": "≥ 1", "unit": "µg/kg"}, {"measurement": "Deaths", "setting": "[5]; [6]", "value": 0}, {"measurement": "Survival", "setting": "[5]; [6]", "value": 100.00, "unit": "%"}, {"measurement": "Survivors", "setting": "[5]; [6]", "value": 18}, {"measurement": "Deaths", "setting": "[5]; [7]", "value": 0}, {"measurement": "Survival", "setting": "[5]; [7]", "value": 100.00, "unit": "%"}, {"measurement": "Survivors", "setting": "[5]; [7]", "value": 18}, {"measurement": "Deaths", "setting": "[5]; [8]", "value": 1}, {"measurement": "Survival", "setting": "[5]; [8]", "value": 94.44, "unit": "%"}, {"measurement": "Survivors", "setting": "[5]; [8]", "value": 17}, {"measurement": "Deaths", "setting": "[5]; [9]", "value": 5}, {"measurement": "Survival", "setting": "[5]; [9]", "value": 72.22, "unit": "%"}, {"measurement": "Survivors", "setting": "[5]; [9]", "value": 13}, {"measurement": "Deaths", "setting": "[5]; [10]", "value": 3}, {"measurement": "Survival", "setting": "[5]; [10]", "value": 83.33, "unit": "%"}, {"measurement": "Survivors", "setting": "[5]; [10]", "value": 15}, {"measurement": "Deaths", "setting": "[5]; [11]", "value": 2}, {"measurement": "Survival", "setting": "[5]; [11]", "value": 88.89, "unit": "%"}, {"measurement": "Survivors", "setting": "[5]; [11]", "value": 16}, {"measurement": "Deaths", "setting": "[5]; [12]", "value": 12}, {"measurement": "Survival", "setting": "[5]; [12]", "value": 33.33, "unit": "%"}, {"measurement": "Survivors", "setting": "[5]; [12]", "value": 6}, {"measurement": "Deaths", "setting": "[5]; [13]", "value": 8}, {"measurement": "Survival", "setting": "[5]; [13]", "value": 55.56, "unit": "%"}, {"measurement": "Survivors", "setting": "[5]; [13]", "value": 10}, {"measurement": "Deaths", "setting": "[5]; [14]", "value": 7}, {"measurement": "Survival", "setting": "[5]; [14]", "value": 61.11, "unit": "%"}, {"measurement": "Survivors", "setting": "[5]; [14]", "value": 11}, {"measurement": "Deaths", "setting": "[5]; [15]", "value": 14}, {"measurement": "Survival", "setting": "[5]; [15]", "value": 22.22, "unit": "%"}, {"measurement": "Survivors", "setting": "[5]; [15]", "value": 4}, {"measurement": "Deaths", "setting": "[5]; [16]", "value": 12}, {"measurement": "Survival", "setting": "[5]; [16]", "value": 33.33, "unit": "%"}, {"measurement": "Survivors", "setting": "[5]; [16]", "value": 6}, {"measurement": "Deaths", "setting": "[5]; [17]", "value": 11}, {"measurement": "Survival", "setting": "[5]; [17]", "value": 38.89, "unit": "%"}, {"measurement": "Survivors", "setting": "[5]; [17]", "value": 7}, {"measurement": "Deaths", "setting": "[5]; [18]", "value": 14}, {"measurement": "Survival", "setting": "[5]; [18]", "value": 22.22, "unit": "%"}, {"measurement": "Survivors", "setting": "[5]; [18]", "value": 4}, {"measurement": "Deaths", "setting": "[5]; [19]", "value": 12}, {"measurement": "Survival", "setting": "[5]; [19]", "value": 33.33, "unit": "%"}, {"measurement": "Survivors", "setting": "[5]; [19]", "value": 6}, {"measurement": "Deaths", "setting": "[5]; [20]", "value": 11}, {"measurement": "Survival", "setting": "[5]; [20]", "value": 38.89, "unit": "%"}, {"measurement": "Survivors", "setting": "[5]; [20]", "value": 7}, {"measurement": "survival after normally lethal i.p. dose of S. aureus", "setting": "[5]; HM897 pretreatment", "value": "dramatic improvement in survival"}, {"measurement": "Survival", "setting": "[5]; at 36 hours, across HM897 dose groups", "value": "≤ 61", "unit": "%"}, {"measurement": "Survival", "setting": "[5]; by 72 hours, across HM897 dose groups", "value": "22-39%"}]}
